In the NIST ThermoML archive (doi:10.1016/j.jct.2010.05.011):
± gives the expanded uncertainty stated by the source.

Legend:
[1] = 101.33 kPa, Liquid; for speed of sound: Sing-around technique in a fixed-path interferometer; for mass density: Vibrating tube method; for viscosity: Capillary tube (Ostwald / Ubbelohde) method
[2] = refractive index (Na D-line) (dimensionless); details: 101.33 kPa, Liquid, Standard Abbe refractometry

CCOS(=O)(=O)[O-].CCc1cccc[n+]1CC [1,2-diethylpyridinium ethylsulfate]
Details	mass density, [1] [kg/m3]	refractive index, [2]	speed of sound, [1] [m/s]	viscosity, [1] [mPa·s]
293.15 K	1223.6 ± 1.3	1.5146 ± 0.00051	1759.3 ± 4.5	–
298.15 K	1220.2 ± 1.3	1.51328 ± 0.00051	1745.6 ± 4.5	324.7 ± 22
303.15 K	1217 ± 1.3	1.51192 ± 0.00051	1731.3 ± 4.5	233.2 ± 16
308.15 K	1213.9 ± 1.3	1.51057 ± 0.00051	1718.6 ± 4.5	175.8 ± 11
313.15 K	1210.3 ± 1.3	1.5092 ± 0.00051	1705.7 ± 4.5	135.5 ± 8.6
318.15 K	1206.8 ± 1.3	1.50788 ± 0.00051	1693 ± 4.5	104 ± 6.5
323.15 K	1203.4 ± 1.3	1.50648 ± 0.00051	1680.5 ± 4.5	83.3 ± 5.2
328.15 K	1200.1 ± 1.3	1.50513 ± 0.00051	1668.1 ± 4.5	67.2 ± 4.1
333.15 K	1196.8 ± 1.3	1.50376 ± 0.00051	1656.2 ± 4.5	55 ± 3.4
338.15 K	1193.6 ± 1.3	1.50239 ± 0.00051	1644.3 ± 4.5	45.6 ± 2.8
343.15 K	1190.3 ± 1.2	1.5009 ± 0.00051	1632.7 ± 4.5	38.12 ± 2.3

COS(=O)(=O)[O-].Cc1ccc[n+](C)c1 [1,3-dimethylpyridinium methyl sulfate]
Details	mass density, [1] [kg/m3]	refractive index, [2]	speed of sound, [1] [m/s]	viscosity, [1] [mPa·s]
293.15 K	1305.87 ± 1.5	1.5147 ± 0.00051	1834.9 ± 4.5	–
298.15 K	1302.51 ± 1.5	1.5133 ± 0.00051	1822.2 ± 4.5	128.6 ± 8.1
303.15 K	1299.14 ± 1.5	1.51184 ± 0.00051	1809.7 ± 4.5	97.1 ± 6.1
308.15 K	1295.77 ± 1.5	1.51051 ± 0.00051	1797.5 ± 4.5	76.8 ± 4.8
313.15 K	1292.42 ± 1.5	1.50911 ± 0.00051	1785.4 ± 4.5	61.2 ± 3.8
318.15 K	1289.07 ± 1.5	1.5077 ± 0.00051	1773.5 ± 4.5	49.6 ± 3.1
323.15 K	1285.74 ± 1.5	1.5062 ± 0.00051	1761.7 ± 4.5	40.86 ± 2.5
328.15 K	1282.42 ± 1.5	1.50472 ± 0.00051	1750 ± 4.5	34.19 ± 2.1
333.15 K	1279.11 ± 1.5	1.50331 ± 0.00051	1738.4 ± 4.5	28.8 ± 1.8
338.15 K	1275.82 ± 1.4	1.50193 ± 0.00051	1726.9 ± 4.5	24.58 ± 1.5
343.15 K	1272.55 ± 1.4	1.50046 ± 0.00051	1715.6 ± 4.5	21.15 ± 1.3

COS(=O)(=O)[O-].C[n+]1ccccc1 [1-methylpyridinium methylsulfate]
Details	mass density, [1] [kg/m3]	refractive index, [2]	speed of sound, [1] [m/s]	viscosity, [1] [mPa·s]
293.15 K	1348.22 ± 1.6	1.51431 ± 0.00051	1888.6 ± 4.5	–
298.15 K	1344.83 ± 1.6	1.51296 ± 0.00051	1876.4 ± 4.5	116.2 ± 7.3
303.15 K	1341.44 ± 1.6	1.51162 ± 0.00051	1864.4 ± 4.5	91 ± 5.7
308.15 K	1338.07 ± 1.6	1.51029 ± 0.00051	1852.6 ± 4.5	73.1 ± 4.5
313.15 K	1334.71 ± 1.6	1.50895 ± 0.00051	1840.9 ± 4.5	59.7 ± 3.7
318.15 K	1331.35 ± 1.6	1.50764 ± 0.00051	1829.4 ± 4.5	49.3 ± 3
323.15 K	1328.01 ± 1.6	1.50629 ± 0.00051	1817.9 ± 4.5	41.29 ± 2.5
328.15 K	1324.69 ± 1.6	1.50497 ± 0.00051	1806.5 ± 4.5	35.41 ± 2.2
333.15 K	1321.38 ± 1.6	1.50361 ± 0.00051	1795.2 ± 4.5	30.22 ± 1.9
338.15 K	1318.09 ± 1.6	1.50226 ± 0.00051	1784 ± 4.5	26.16 ± 1.6
343.15 K	1314.82 ± 1.6	1.5009 ± 0.00051	1772.8 ± 4.5	22.77 ± 1.4

CCc1cccc[n+]1C.COS(=O)(=O)[O-] [2-ethyl-1-methylpyridinium methyl sulfate]
Details	mass density, [1] [kg/m3]	refractive index, [2]	speed of sound, [1] [m/s]	viscosity, [1] [mPa·s]
293.15 K	1288.3 ± 1.5	1.52031 ± 0.00051	1869.2 ± 4.5	–
298.15 K	1284.7 ± 1.5	1.51902 ± 0.00051	1856 ± 4.5	4559 ± 420
303.15 K	1281.3 ± 1.5	1.5177 ± 0.00051	1842.4 ± 4.5	3207 ± 290
308.15 K	1277.9 ± 1.5	1.5164 ± 0.00051	1830.5 ± 4.5	2329 ± 200
313.15 K	1274.49 ± 1.4	1.51508 ± 0.00051	1818.4 ± 4.5	1728 ± 140
318.15 K	1271.15 ± 1.4	1.51374 ± 0.00051	1806.5 ± 4.5	1293 ± 100
323.15 K	1267.6 ± 1.4	1.51245 ± 0.00051	1794.9 ± 4.5	1012 ± 78
328.15 K	1264.5 ± 1.4	1.51115 ± 0.00051	1783 ± 4.5	802 ± 60
333.15 K	1261.3 ± 1.4	1.50982 ± 0.00051	1770.2 ± 4.5	646 ± 47
338.15 K	1258.1 ± 1.4	1.50852 ± 0.00051	1758.5 ± 4.5	528 ± 38
343.15 K	1254 ± 1.4	1.50722 ± 0.00051	1747 ± 4.5	437 ± 31
